Laboratory results published in US11180504B2 (ORCHID PHARMA LTD., priority 2016, dated 2021).
≈ marks a conversion by molar mass, not a printed value.

Tests used:
[1] = test system: methicillin-sensitive Staphylococcus aureus; experiment: MIC by broth micro-dilution (CLSI), methicillin-sensitive S. aureus; type: cell-based; conditions: Staphylococcus aureus, ATCC 29213 / MSSA, MSSA S. aureus ATCC29213; read-out: MIC
[2] = test system: carbapenem sensitive Escherichia coli; experiment: MIC by broth micro-dilution (CLSI), carbapenem sensitive E. coli; type: cell-based; conditions: Escherichia coli, ATCC25922, ESBL −ve E. coli ATCC25922; read-out: MIC
[3] = test system: extended spectrum β lactamase (ESBL) SHV18 producing Klebsiella pneumoniae; experiment: MIC by broth micro-dilution (CLSI), ESBL SHV18 producing K. pneumoniae; type: cell-based; conditions: Klebsiella pneumoniae, ATCC700603, 22 h, ESBL +ve (SHV-18) K. pneumoniae ATCC700603; read-out: MIC
[4] = test system: carbapenemase producing K. pneumoniae; experiment: MIC by broth micro-dilution (CLSI), carbapenemase producing K. pneumoniae; type: cell-based, Klebsiella pneumoniae; conditions: Klebsiella pneumoniae, ATCCBAA1705, KPC-2 K. pneumoniae ATCC BAA-1705; read-out: MIC
[5] = test system: carbapenem sensitive Pseudomonas aeruginosa; experiment: MIC by broth micro-dilution (CLSI), carbapenem sensitive P. aeruginosa; type: cell-based; conditions: Pseudomonas aeruginosa, ATCC27853, Meropenem susceptible P. aeruginosa ATCC27853; read-out: MIC

SMILES	MIC [1] [µg/mL]	MIC [2] [µg/mL]	MIC [3] [µg/mL]	MIC [4] [µg/mL]	MIC [5] [µg/mL]
C[C@@H](NC(=O)Cc1cccs1)[C@H]1C(=O)N2C(C(=O)O)=C(S[C@@H]3CN[C@H](C(=O)N(C)C)C3)[C@H](C)[C@H]12 [Example 5]	8 (≈ 15.8 µM)	8 (≈ 15.8 µM)	> 128	> 128	> 128
C[C@@H](NS(C)(=O)=O)[C@H]1C(=O)N2C(C(=O)O)=C(S[C@@H]3CN[C@H](CNS(N)(=O)=O)C3)[C@H](C)[C@H]12 [Example 7]	2 to 8 (≈ 4.02 to 16.1 µM)	0.5 (≈ 1 µM)	2 to 4 (≈ 4.02 to 8.04 µM)	2 to 4 (≈ 4.02 to 8.04 µM)	32 to 64 (≈ 64.3 to 129 µM)
COc1ccc(S(=O)(=O)N[C@H](C)[C@H]2C(=O)N3C(C(=O)O)=C(S[C@@H]4CN[C@H](C(=O)N(C)C)C4)[C@H](C)C23)cc1OC (stereo partly shown) [Example 9]	8 (≈ 13.7 µM)	128 (≈ 220 µM)	> 128	> 128	> 128
CCS(=O)(=O)N[C@H](C)[C@H]1C(=O)N2C(C(=O)O)=C(S[C@@H]3CN[C@H](C(=O)N(C)C)C3)[C@H](C)[C@H]12 [Example 10]	16 (≈ 33.7 µM)	1 (≈ 2.11 µM)	2 (≈ 4.21 µM)	4 (≈ 8.43 µM)	> 128
C[C@@H](NS(=O)(=O)c1ccccc1)[C@H]1C(=O)N2C(C(=O)O)=C(S[C@@H]3CN[C@H](C(=O)N(C)C)C3)[C@H](C)[C@H]12 [Example 11]	8 (≈ 15.3 µM)	4 (≈ 7.65 µM)	64 (≈ 122 µM)	32 (≈ 61.2 µM)	> 128
C[C@@H](NS(=O)(=O)c1ccc(F)cc1)[C@H]1C(=O)N2C(C(=O)O)=C(S[C@@H]3CN[C@H](C(=O)N(C)C)C3)[C@H](C)[C@H]12 [Example 12]	8 (≈ 14.8 µM)	4 (≈ 7.4 µM)	128 (≈ 237 µM)	32 (≈ 59.2 µM)	> 128
C[C@@H](NS(=O)(=O)C(F)(F)F)[C@H]1C(=O)N2C(C(=O)O)=C(S[C@@H]3CN[C@H](C(=O)N(C)C)C3)[C@H](C)[C@H]12 [Example 13]	4 (≈ 7.77 µM)	1 (≈ 1.94 µM)	8 (≈ 15.5 µM)	4 (≈ 7.77 µM)	64 (≈ 124 µM)
COC(=O)N[C@H](C)[C@H]1C(=O)N2C(C(=O)O)=C(S[C@@H]3CN[C@H](C(=O)N(C)C)C3)[C@H](C)[C@H]12 [Example 14]	4 (≈ 9.08 µM)	0.5 (≈ 1.14 µM)	4 (≈ 9.08 µM)	4 (≈ 9.08 µM)	128 (≈ 291 µM)
CCOC(=O)N[C@H](C)[C@H]1C(=O)N2C(C(=O)O)=C(S[C@@H]3CN[C@H](C(=O)N(C)C)C3)[C@H](C)[C@H]12 [Example 15]	2 (≈ 4.4 µM)	1 (≈ 2.2 µM)	16 (≈ 35.2 µM)	16 (≈ 35.2 µM)	128 (≈ 282 µM)
C[C@@H](NS(=O)(=O)Cc1ccccc1)[C@H]1C(=O)N2C(C(=O)O)=C(S[C@@H]3CN[C@H](C(=O)N(C)C)C3)[C@H](C)[C@H]12 [Example 16]	4 (≈ 7.45 µM)	4 (≈ 7.45 µM)	64 (≈ 119 µM)	16 (≈ 29.8 µM)	> 128
C[C@@H](NC(=O)C1(C(F)(F)F)CC1)[C@H]1C(=O)N2C(C(=O)O)=C(S[C@@H]3CN[C@H](C(=O)N(C)C)C3)[C@H](C)[C@H]12 [Example 17]	4 (≈ 7.71 µM)	16 (≈ 30.9 µM)	> 128	32 (≈ 61.7 µM)	128 (≈ 247 µM)
CCCCS(=O)(=O)N[C@H](C)[C@H]1C(=O)N2C(C(=O)O)=C(S[C@@H]3CN[C@H](C(=O)N(C)C)C3)[C@H](C)[C@H]12 [Example 18]	8 (≈ 15.9 µM)	4 (≈ 7.96 µM)	64 (≈ 127 µM)	8 (≈ 15.9 µM)	32 (≈ 63.7 µM)
C[C@@H](NS(=O)(=O)C(F)(F)F)[C@H]1C(=O)N2C(C(=O)O)=C(S[C@@H]3CN[C@H](CNS(N)(=O)=O)C3)[C@H](C)[C@H]12 [Example 19]	1 (≈ 1.81 µM)	1 (≈ 1.81 µM)	8 (≈ 14.5 µM)	> 128	128 (≈ 232 µM)
CCOC(=S)N[C@H](C)[C@H]1C(=O)N2C(C(=O)O)=C(S[C@@H]3CN[C@H](C(=O)N(C)C)C3)[C@H](C)[C@H]12 [Example 20]	2 (≈ 4.25 µM)	1 (≈ 2.12 µM)	8 (≈ 17 µM)	16 (≈ 34 µM)	128 (≈ 272 µM)
COCC(=O)N[C@H](C)[C@H]1C(=O)N2C(C(=O)O)=C(S[C@@H]3CN[C@H](C(=O)N(C)C)C3)[C@H](C)[C@H]12 [Example 21]	2 (≈ 4.4 µM)	2 (≈ 4.4 µM)	4 (≈ 8.8 µM)	4 to 16 (≈ 8.8 to 35.2 µM)	> 128
CC(C)OC(=O)N[C@H](C)[C@H]1C(=O)N2C(C(=O)O)=C(S[C@@H]3CN[C@H](C(=O)N(C)C)C3)[C@H](C)[C@H]12 [Example 22]	2 (≈ 4.27 µM)	8 (≈ 17.1 µM)	64 to 128 (≈ 137 to 273 µM)	32 (≈ 68.3 µM)	> 128
C[C@@H](NS(C)(=O)=O)[C@H]1C(=O)N2C(C(=O)O)=C(S[C@@H]3CN[C@H](C(=O)N4CCN(C)CC4)C3)[C@H](C)[C@H]12 [Example 23]	16 (≈ 31 µM)	0.5 (≈ 0.97 µM)	1 (≈ 1.94 µM)	8 (≈ 15.5 µM)	32 to 128 (≈ 62.1 to 248 µM)
C[C@@H](NS(C)(=O)=O)[C@H]1C(=O)N2C(C(=O)O)=C(S[C@@H]3CN[C@H](C(=O)N4CCC(O)CC4)C3)[C@H](C)[C@H]12 [Example 24]	16 (≈ 31 µM)	0.5 (≈ 0.968 µM)	1 (≈ 1.94 µM)	4 (≈ 7.74 µM)	32 to 64 (≈ 61.9 to 124 µM)
C[C@@H](NS(=O)(=O)C(F)(F)F)[C@H]1C(=O)N2C(C(=O)O)=C(S[C@@H]3CN[C@H](C(=O)N4CCN(C)CC4)C3)[C@H](C)[C@H]12 [Example 25]	4 (≈ 7.02 µM)	1 (≈ 1.76 µM)	8 (≈ 14 µM)	8 (≈ 14 µM)	128 (≈ 225 µM)
CC(=O)OCC(=O)N[C@H](C)[C@H]1C(=O)N2C(C(=O)O)=C(S[C@@H]3CN[C@H](C(=O)N(C)C)C3)[C@H](C)[C@H]12 [Example 26]	4 (≈ 8.29 µM)	1 (≈ 2.07 µM)	4 to 8 (≈ 8.29 to 16.6 µM)	8 (≈ 16.6 µM)	128 (≈ 265 µM)
C[C@@H](NS(C)(=O)=O)[C@H]1C(=O)N2C(C(=O)O)=C(S[C@@H]3CN[C@H](C(=O)N4CCOCC4)C3)[C@H](C)[C@H]12 [Example 27]	16 (≈ 31.8 µM)	0.5 (≈ 0.995 µM)	1 (≈ 1.99 µM)	4 (≈ 7.96 µM)	64 to 128 (≈ 127 to 255 µM)
CCOC(=O)C(=O)N[C@H](C)[C@H]1C(=O)N2C(C(=O)O)=C(S[C@@H]3CN[C@H](C(=O)N(C)C)C3)[C@H](C)[C@H]12 [Example 28]	8 (≈ 16.6 µM)	2 (≈ 4.14 µM)	2 (≈ 4.14 µM)	4 to 8 (≈ 8.29 to 16.6 µM)	4 to 8 (≈ 8.29 to 16.6 µM)
C[C@@H](NS(=O)(=O)C(F)(F)F)[C@H]1C(=O)N2C(C(=O)O)=C(S[C@@H]3CN[C@H](C(=O)N4CCOCC4)C3)[C@H](C)[C@H]12 [Example 29]	4 (≈ 7.19 µM)	1 (≈ 1.8 µM)	8 (≈ 14.4 µM)	> 128	128 (≈ 230 µM)
C[C@@H](NS(=O)(=O)C(F)(F)F)[C@H]1C(=O)N2C(C(=O)O)=C(S[C@@H]3CN[C@H](C(=O)N4CCC(O)CC4)C3)[C@H](C)[C@H]12 [Example 30]	2 (≈ 3.51 µM)	1 (≈ 1.75 µM)	8 (≈ 14 µM)	8 (≈ 14 µM)	128 (≈ 224 µM)
CC(C)C[C@H](N)C(=O)N[C@H](C)[C@H]1C(=O)N2C(C(=O)O)=C(S[C@@H]3CN[C@H](C(=O)N(C)C)C3)[C@H](C)[C@H]12 [Example 31]	16 (≈ 32.3 µM)	4 (≈ 8.07 µM)	16 (≈ 32.3 µM)	4 (≈ 8.07 µM)	> 128
C[C@@H](NC(=O)C(F)F)[C@H]1C(=O)N2C(C(=O)O)=C(S[C@@H]3CN[C@H](C(=O)N(C)C)C3)[C@H](C)[C@H]12 [Example 32]	1 (≈ 2.17 µM)	0.5 (≈ 1.09 µM)	1 (≈ 2.17 µM)	1 (≈ 2.17 µM)	32 (≈ 69.5 µM)
